# Experimental data taken from patent US6495550B2, “Pyridine-substituted benzanilides as potassium ion channel openers” (ICAgen, Inc., priority 1999, dated 2002).
row,SMILES,melting point [°C]
1,"O=C(Nc1ccc(F)nc1)c1cnc(F)c(F)c1 [Compound 15, 5,6-Difluoro-N-(6-fluoro-pyridin-3-yl)-nicotinamide]",135 to 137
2,"Cc1cc(C(=O)Nc2ccc(Cl)nc2)ccc1[N+](=O)[O-] [Compound 16, N-(6-Chloro-pyridin-3-yl)-3-methyl-4-nitro-benzamide]",192 to 193
3,"O=C(Nc1ccc(Cl)nc1)c1ccc(C(F)(F)F)c(F)c1 [Compound 12, N-(6-Chloro-pyridin-3-yl)-3-fluoro-4-trifluoromethyl-benzamide]",182
4,"O=C(Nc1ccc(Cl)nc1)c1ccc(NCc2ccccn2)c(F)c1 [Compound 33, N-(6-Chloro-pyridin-3-yl)-3-fluoro-4-[(pyridin-2-ylmethyl)-amino]-benzamide]",210 to 211
5,"O=C(Nc1ccc(Cl)nc1)c1ccc(Cl)nc1 [Compound 7, 6-Chloro-N-(6-chloro-pyridin-3-yl)-nicotinamide]",228
6,"O=C(Nc1ccc(Cl)nc1)c1ccc(Cl)c(Cl)c1 [Compound 2, 3,4-Dichloro-N-(6-chloro-pyridin-3-yl)-benzamide]",188 to 189
7,"CCc1ccc2[nH]c(C(=O)Nc3ccc(Cl)nc3)cc2c1 [Compound 24, 5-Ethyl-1 H-indole-2-carboxylic acid (6-chloro-pyridin-3-yl)-amide]",270
8,"O=C(Nc1ccc(Cl)nc1)c1cc2ccccc2[nH]1 [Compound 26, 1H-Indole-2-carboxylic acid (6-chloro-pyridin-3-yl)-amide]",260 to 263
9,"O=C(Nc1ccc(Cl)nc1)c1ccc(Cl)o1 [Compound 21, 5-Chloro-furan-2-carboxylic acid (6-chloro-pyridin-3-yl)-amide]",143 to 144
10,"O=C(Nc1ccc(Cl)nc1)c1ccc([N+](=O)[O-])cc1 [Compound 42, N-(6-Chloro-pyridin-3-yl)-4-nitro-benzamide]",193
11,"O=C(Nc1ccc(Cl)nc1)c1cccc(F)c1 [Compound 9, N-(6-Chloro-pyridin-3-yl)-3-fluoro-benzamide]",160
12,"Cc1c(C(=O)Nc2ccc(Cl)nc2)[nH]c2ccccc12 [Compound 23, 3-Methyl-1 H-indole-2-carboxylic acid (6-chloro-pyridin-3-yl)-amide]",184 to 185
13,"O=C(Nc1ccc(Cl)nc1)c1ccc(N2CCOCC2)c(F)c1 [Compound 31, N-(6-Chloro-pyridin-3-yl)-3-fluoro-4-morpholin-4-yl-benzamide]",228 to 229
14,"O=C(Nc1ccc(Cl)nc1)c1cc2cc(Cl)ccc2o1 [Compound 19, 5-Chloro-benzofuran-2-carboxylic acid (6-chloro-pyridin-3-yl)-amide]",222 to 223
15,"O=C(Nc1ccc(Cl)nc1)c1ccc(-c2ccccc2)cc1 [Compound 6, Biphenyl-4-carboxylic acid (6-chloro-pyridin-3-yl)-amide]",227 to 229
16,"O=C(Nc1ccc(Cl)nc1)c1ccc(Cl)s1 [Compound 20, 5-Chloro-thiophene-2-carboxylic acid (6-chloro-pyridin-3-yl)-amide]",215 to 216
17,"O=C(Nc1ccc(Cl)nc1)c1cc2cc(F)ccc2[nH]1 [Compound 17, 5-Fluoro-1 H-indole-2-carboxylic acid (6-chloro-pyridin-3-yl)-amide]",290
18,"O=C(Nc1ccc(Cl)nc1)c1ccccc1 [Compound 25, N-(6-Chloro-pyridin-3-yl)-benzamide]",163 to 164
19,"CN(C)c1ccc(C(=O)Nc2ccc(Cl)nc2)cc1F [Compound 34, N-(6-Chloro-pyridin-3-yl)-4-dimethylamino-3-fluoro-benzamide]",170 to 171
20,"O=C(Nc1ccc(Cl)nc1)c1cccc(Cl)c1 [Compound 5, 3-Chloro-N-(6-chloro-pyridin-3-yl)-benzamide]",153 to 154
21,"O=C(Nc1ccc(Cl)nc1)c1ccc(Cl)cc1 [Compound 14, N-(6-Chloro-pyridin-3-yl)-4-chloro-benzamide]",197 to 199
22,"O=C(Nc1ccc(Cl)nc1)c1cccc(C(F)(F)F)c1 [Compound 3, N-(6-Chloro-pyridin-3-yl)-3-trifluoromethyl-benzamide]",139 to 140
23,"O=C(Nc1ccc(Cl)nc1)c1cccc(C(F)(F)F)c1 [Compound 10, N-(6-Chloro-pyridin-3-yl)-3-(trifluoromethyl)-benzamide]",169 to 170
24,"Nc1ccc(C(=O)Nc2ccc(Cl)nc2)cc1F [Compound 41, 4-Amino-N-(6-chloro-pyridin-3-yl)-3-fluoro-benzamide]",193
25,"O=C(Nc1ccc(Cl)nc1)c1cc2cc(Cl)ccc2[nH]1 [Compound 18, 5-Chloro-1 H-indole-2-carboxylic acid (6-chloro-pyridin-3-yl)-amide]",296
26,"O=C(Nc1ccc(Cl)nc1)c1ccc([N+](=O)[O-])c(F)c1 [Compound 37, N-(6-Chloro-pyridin-3-yl)-3-fluoro-4-nitro-benzamide]",205
27,"O=C(Nc1ccc(Cl)nc1)c1ccc(NC(=O)c2ccccn2)cc1 [Compound 35, Pyridine-2-carboxylic acid [4-(6-chloro-pyridin-3-ylcarbamoyl)-phenyl]-amide]",258 to 260
